Test results taken from ChEMBL document CHEMBL1201862, “PubChem BioAssay data set” (2004).
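A five-concentration, 48-hour dose response in 96-well plates underlies each endpoint, interpolated linearly between surrounding concentrations. At the GI50, growth is halved.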 Activity calls are given as the source filed them. Rule as the data show it: active = GI50 up to about 1.1 µM and inactive = higher.

Legend:
Experiment in all cases: NCI-60 cell line screen, 48 h
ACHN = test system: ACHN
IGROV-1 = test system: IGROV-1
K562 = test system: K562
KM12 = test system: KM12
M14 = test system: M14
OVCAR-5 = test system: OVCAR-5
PC-3 = test system: PC-3
SF-268 = test system: SF-268
SK-MEL-5 = test system: SK-MEL-5
SN12C = test system: SN12C
SNB-75 = test system: SNB-75
SR = test system: SR
U-251 = test system: U-251
UACC-257 = test system: UACC-257
UO-31 = test system: UO-31
A549 = test system: A549
SK-MEL-2 = test system: SK-MEL-2
SK-OV-3 = test system: SK-OV-3
UACC-62 = test system: UACC-62
HCC 2998 = test system: HCC 2998

Measured: GI50

COC(=O)[C@@H]1[C@H](O)[C@H](C)[C@H](O)[C@H](C)/C=C\C=C(\C)C(=O)Nc2c(C)c(OC(C)=O)c3c(c2O)C(=O)C(C)=C2OCOC(=C23)/C(C)=C/[C@@H](O)[C@H](O)[C@@H](C)[C@H]1OC(C)=O
inactive: ACHN > 100 µM | IGROV-1 67.9 µM | K562 52.7 µM | KM12 95.3 µM | M14 38.1 µM | OVCAR-5 > 100 µM | PC-3 31.8 µM | SF-268 78.2 µM | SK-MEL-5 57.4 µM | SN12C 36.8 µM | SNB-75 > 100 µM | SR 33 µM | U-251 > 100 µM | UACC-257 28.3 µM | UO-31 38.5 µM

CC1(C)OC(=O)C(C)(C)OC1=O
inactive: A549 > 100 µM | ACHN > 100 µM | IGROV-1 > 100 µM | K562 > 100 µM | KM12 > 100 µM | M14 > 100 µM | OVCAR-5 > 100 µM | PC-3 > 100 µM | SF-268 > 100 µM | SK-MEL-2 > 100 µM | SK-MEL-5 > 100 µM | SK-OV-3 > 100 µM | SN12C > 100 µM | SNB-75 > 100 µM | SR > 100 µM | U-251 > 100 µM | UACC-257 > 100 µM | UACC-62 > 100 µM | UO-31 > 100 µM

O=c1[nH]c(=O)n(CCOc2ccccc2)cc1Nc1ccccc1
inactive: A549 > 100 µM | ACHN 92.7 µM | HCC 2998 > 100 µM | IGROV-1 > 100 µM | K562 > 100 µM | KM12 > 100 µM | M14 > 100 µM | OVCAR-5 > 100 µM | PC-3 > 100 µM | SF-268 43.3 µM | SK-MEL-5 > 100 µM | SN12C > 100 µM | SR > 100 µM | U-251 > 100 µM | UACC-257 > 100 µM | UACC-62 > 100 µM | UO-31 > 100 µM

COc1cc2c(c(O)c1OC)C(=O)C(Cc1ccc(O)cc1)CO2 (centres undefined)
inactive: A549 23.8 µM | ACHN 42.5 µM | IGROV-1 35.3 µM | K562 13.1 µM | KM12 23.4 µM | M14 23.1 µM | OVCAR-5 48.3 µM | PC-3 33.2 µM | SF-268 32.4 µM | SK-MEL-2 30.8 µM | SK-MEL-5 26.5 µM | SK-OV-3 18.4 µM | SN12C 36.3 µM | SNB-75 18.4 µM | SR 4.67 µM | U-251 29.5 µM | UACC-257 54.2 µM | UACC-62 32.4 µM | UO-31 40.6 µM

Cc1cc(C)cc(Nc2cc(O)nc(O)n2)c1
inactive: A549 > 100 µM | ACHN > 100 µM | HCC 2998 > 100 µM | IGROV-1 > 100 µM | K562 > 100 µM | KM12 > 100 µM | M14 > 100 µM | OVCAR-5 > 100 µM | PC-3 > 100 µM | SF-268 > 100 µM | SK-MEL-5 > 100 µM | SN12C > 100 µM | SNB-75 15.8 µM | SR > 100 µM | U-251 > 100 µM | UACC-257 > 100 µM | UO-31 > 100 µM

CN(Cc1cc(C(C)(C)C)cc(Br)c1O)Cc1cc(C(C)(C)C)cc(Br)c1O
inactive: A549 3.52 µM | ACHN 2.94 µM | IGROV-1 1.72 µM | K562 3.13 µM | KM12 2.52 µM | M14 4.28 µM | OVCAR-5 5.52 µM | PC-3 2.96 µM | SF-268 3.66 µM | SK-MEL-2 2.02 µM | SK-MEL-5 2.76 µM | SK-OV-3 9.51 µM | SN12C 4.19 µM | SNB-75 3.66 µM | SR 2.86 µM | U-251 2.65 µM | UACC-257 2.48 µM | UACC-62 3.13 µM | UO-31 3.61 µM

COc1cc(S(=O)(=O)N/N=C/c2cc(Br)c(O)c(OC)c2)c(OC)cc1NC(C)=O
inactive: A549 > 100 µM | ACHN 78.3 µM | IGROV-1 50.8 µM | K562 41.5 µM | KM12 > 100 µM | M14 > 100 µM | OVCAR-5 > 100 µM | PC-3 62.2 µM | SK-MEL-2 > 100 µM | SK-MEL-5 87.7 µM | SK-OV-3 > 100 µM | SN12C 73.8 µM | SNB-75 > 100 µM | SR 80.2 µM | U-251 > 100 µM | UACC-257 > 100 µM | UO-31 > 100 µM

O=[N+]([O-])C(=C1NCCN1)C(Cl)=C(Cl)Cl
inactive: A549 > 100 µM | ACHN > 100 µM | HCC 2998 > 100 µM | IGROV-1 > 100 µM | K562 > 100 µM | KM12 > 100 µM | M14 > 100 µM | OVCAR-5 > 100 µM | PC-3 > 100 µM | SF-268 > 100 µM | SK-MEL-2 > 100 µM | SK-MEL-5 > 100 µM | SK-OV-3 > 100 µM | SN12C > 100 µM | SR > 100 µM | U-251 > 100 µM | UACC-257 > 100 µM | UACC-62 > 100 µM | UO-31 > 100 µM

Cc1ccc(-c2cc(N)n(-c3nc4c([nH]3)c(=O)n(C)c(=O)n4C)n2)cc1
inactive: A549 4.68 µM | ACHN 1.92 µM | HCC 2998 7.67 µM | IGROV-1 2.2 µM | K562 4.03 µM | KM12 4.88 µM | M14 4.32 µM | OVCAR-5 8.05 µM | PC-3 16.3 µM | SF-268 3.59 µM | SK-MEL-2 6.64 µM | SK-MEL-5 3.36 µM | SK-OV-3 3.3 µM | SN12C 5.32 µM | SR 2.43 µM | U-251 5.36 µM | UACC-257 15.3 µM | UACC-62 5.37 µM | UO-31 2.78 µM

Nc1ccccc1N/C=C\C(=O)C(Cl)(Cl)Cl
inactive: A549 67.3 µM | ACHN 16.3 µM | HCC 2998 16.6 µM | IGROV-1 16.4 µM | K562 17.1 µM | KM12 15.5 µM | M14 14.7 µM | OVCAR-5 20.1 µM | PC-3 35.3 µM | SF-268 40.3 µM | SK-MEL-2 24.5 µM | SK-MEL-5 44 µM | SK-OV-3 25.2 µM | SN12C 19 µM | SNB-75 22.6 µM | U-251 25.6 µM | UACC-257 21.9 µM | UACC-62 17.5 µM | UO-31 19.2 µM

O=C(NCCCCN(CCCNC(=O)C(F)(F)F)Cc1ccccc1)C(F)(F)F
inactive: A549 > 100 µM | ACHN > 100 µM | HCC 2998 > 100 µM | IGROV-1 25.2 µM | K562 > 100 µM | KM12 > 100 µM | M14 > 100 µM | OVCAR-5 > 100 µM | PC-3 92.3 µM | SF-268 > 100 µM | SK-MEL-2 > 100 µM | SK-MEL-5 > 100 µM | SK-OV-3 > 100 µM | SN12C > 100 µM | SNB-75 > 100 µM | U-251 > 100 µM | UACC-257 > 100 µM | UACC-62 > 100 µM | UO-31 > 100 µM
